The results in this text go back to ChEMBL document CHEMBL1155021, “Spheciosterol sulfates, PKCzeta inhibitors from a philippine sponge Spheciospongia sp” (J Nat Prod, 2008).

Where a name gives a salt, the structure may show the parent alone.

For this assay, the target named is T1, Protein kinase C zeta type (Homo sapiens, UniProt Q05513).
T1 sequence (Q05513 whole entry): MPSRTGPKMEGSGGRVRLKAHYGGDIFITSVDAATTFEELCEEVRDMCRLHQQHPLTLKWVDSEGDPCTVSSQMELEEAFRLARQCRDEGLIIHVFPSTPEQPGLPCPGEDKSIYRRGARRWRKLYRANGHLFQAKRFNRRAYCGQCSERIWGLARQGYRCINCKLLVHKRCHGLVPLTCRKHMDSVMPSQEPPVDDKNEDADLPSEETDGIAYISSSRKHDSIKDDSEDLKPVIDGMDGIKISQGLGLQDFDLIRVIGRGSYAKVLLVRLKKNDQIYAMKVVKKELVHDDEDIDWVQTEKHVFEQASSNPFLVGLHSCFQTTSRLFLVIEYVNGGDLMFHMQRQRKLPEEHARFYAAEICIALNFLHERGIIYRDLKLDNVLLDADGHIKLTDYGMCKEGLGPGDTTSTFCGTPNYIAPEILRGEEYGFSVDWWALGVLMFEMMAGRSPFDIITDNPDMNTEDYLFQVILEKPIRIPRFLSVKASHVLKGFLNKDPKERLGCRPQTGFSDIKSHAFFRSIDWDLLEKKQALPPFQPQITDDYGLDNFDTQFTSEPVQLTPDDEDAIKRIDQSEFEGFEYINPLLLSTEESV
Briefly: Inhibition of PKCzeta by TR-FRET based LanthaScreen assay.
For orientation: IC50 means the concentration that inhibits the measured activity by half. The low end stands for higher potency, the high end for lower potency. On to `C=C(C)C(C)(C)C(C)CC[C@@H](C)[C@H]1CC[C@@]2(C)[C@@H]3C[C@H](OS(=O)(=O)O)[C@H]4[C@@H](O)[C@H](OS(=O)(=O)O)[C@@H](OS(=O)(=O)O)C[C@]4(C)C3=CC[C@]12C` (some centres undefined) [SPHECIOSTEROL SULFATE C], for which the IC50 came out at 110 nM.

The compound `C=C(C)C(CC)CC[C@@H](C)[C@H]1CC[C@@]2(C)[C@@H]3C[C@H](OS(=O)(=O)O)[C@H]4[C@@H](O)[C@H](OS(=O)(=O)O)[C@@H](OS(=O)(=O)O)C[C@]4(C)C3=CC[C@]12C` (some centres undefined) [SPHECIOSTEROL SULFATE A] had a concentration for half-maximal inhibition (IC50) of 1590 nM.

Take `C=C(C)C(CC[C@@H](C)[C@H]1CC[C@@]2(C)[C@@H]3C[C@H](OS(=O)(=O)O)[C@H]4[C@@H](O)[C@H](OS(=O)(=O)O)[C@@H](OS(=O)(=O)O)C[C@]4(C)C3=CC[C@]12C)C(C)C` (some centres undefined) [SPHECIOSTEROL SULFATE B]: the IC50 came to 530 nM. The result for `CC(C)C1(CC[C@@H](C)[C@H]2CC[C@@]3(C)[C@@H]4C[C@H](OS(=O)(=O)O)[C@H]5[C@@H](O)[C@H](OS(=O)(=O)O)[C@@H](OS(=O)(=O)O)C[C@]5(C)C4=CC[C@]23C)CC1C` (some centres undefined) [TOPSENTIASTEROL SULFATE E] reads 1210 nM.
